Results from patent publication US8895733B2 (Novartis AG, priority 2010, dated 2014).

What was measured:
Format in all cases: cell-based
[1] = biological target: T1, Nav 1.7 (Homo sapiens, UniProt Q15858); assay: Whole-cell voltage clamp electrophysiology, automated patch clamp (marker c in Table of Examples); conditions: marker c: Automated patch clamp data; read-out: Nav 1.7 activity
T1 construct: expressed in transfected cells
Procedure, shortened: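 A voltage protocol weighted toward inactivated-state block was used to test compounds on stably expressing cells, with pulses from −65 mV holding to −10 mV test and −100 mV. Currents came from whole-cell automated patch-clamp recordings, either IonWorks Quattro or other automated instruments, usually in perforated-patch mode.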

[2] = biological target: T2, Nav1.5 (Homo sapiens, UniProt Q14524); assay: Inhibition of Nav1.5 as measured using manual patch clamp
T2 construct: expressed in transfected cells
T2 sequence (Q14524 whole entry): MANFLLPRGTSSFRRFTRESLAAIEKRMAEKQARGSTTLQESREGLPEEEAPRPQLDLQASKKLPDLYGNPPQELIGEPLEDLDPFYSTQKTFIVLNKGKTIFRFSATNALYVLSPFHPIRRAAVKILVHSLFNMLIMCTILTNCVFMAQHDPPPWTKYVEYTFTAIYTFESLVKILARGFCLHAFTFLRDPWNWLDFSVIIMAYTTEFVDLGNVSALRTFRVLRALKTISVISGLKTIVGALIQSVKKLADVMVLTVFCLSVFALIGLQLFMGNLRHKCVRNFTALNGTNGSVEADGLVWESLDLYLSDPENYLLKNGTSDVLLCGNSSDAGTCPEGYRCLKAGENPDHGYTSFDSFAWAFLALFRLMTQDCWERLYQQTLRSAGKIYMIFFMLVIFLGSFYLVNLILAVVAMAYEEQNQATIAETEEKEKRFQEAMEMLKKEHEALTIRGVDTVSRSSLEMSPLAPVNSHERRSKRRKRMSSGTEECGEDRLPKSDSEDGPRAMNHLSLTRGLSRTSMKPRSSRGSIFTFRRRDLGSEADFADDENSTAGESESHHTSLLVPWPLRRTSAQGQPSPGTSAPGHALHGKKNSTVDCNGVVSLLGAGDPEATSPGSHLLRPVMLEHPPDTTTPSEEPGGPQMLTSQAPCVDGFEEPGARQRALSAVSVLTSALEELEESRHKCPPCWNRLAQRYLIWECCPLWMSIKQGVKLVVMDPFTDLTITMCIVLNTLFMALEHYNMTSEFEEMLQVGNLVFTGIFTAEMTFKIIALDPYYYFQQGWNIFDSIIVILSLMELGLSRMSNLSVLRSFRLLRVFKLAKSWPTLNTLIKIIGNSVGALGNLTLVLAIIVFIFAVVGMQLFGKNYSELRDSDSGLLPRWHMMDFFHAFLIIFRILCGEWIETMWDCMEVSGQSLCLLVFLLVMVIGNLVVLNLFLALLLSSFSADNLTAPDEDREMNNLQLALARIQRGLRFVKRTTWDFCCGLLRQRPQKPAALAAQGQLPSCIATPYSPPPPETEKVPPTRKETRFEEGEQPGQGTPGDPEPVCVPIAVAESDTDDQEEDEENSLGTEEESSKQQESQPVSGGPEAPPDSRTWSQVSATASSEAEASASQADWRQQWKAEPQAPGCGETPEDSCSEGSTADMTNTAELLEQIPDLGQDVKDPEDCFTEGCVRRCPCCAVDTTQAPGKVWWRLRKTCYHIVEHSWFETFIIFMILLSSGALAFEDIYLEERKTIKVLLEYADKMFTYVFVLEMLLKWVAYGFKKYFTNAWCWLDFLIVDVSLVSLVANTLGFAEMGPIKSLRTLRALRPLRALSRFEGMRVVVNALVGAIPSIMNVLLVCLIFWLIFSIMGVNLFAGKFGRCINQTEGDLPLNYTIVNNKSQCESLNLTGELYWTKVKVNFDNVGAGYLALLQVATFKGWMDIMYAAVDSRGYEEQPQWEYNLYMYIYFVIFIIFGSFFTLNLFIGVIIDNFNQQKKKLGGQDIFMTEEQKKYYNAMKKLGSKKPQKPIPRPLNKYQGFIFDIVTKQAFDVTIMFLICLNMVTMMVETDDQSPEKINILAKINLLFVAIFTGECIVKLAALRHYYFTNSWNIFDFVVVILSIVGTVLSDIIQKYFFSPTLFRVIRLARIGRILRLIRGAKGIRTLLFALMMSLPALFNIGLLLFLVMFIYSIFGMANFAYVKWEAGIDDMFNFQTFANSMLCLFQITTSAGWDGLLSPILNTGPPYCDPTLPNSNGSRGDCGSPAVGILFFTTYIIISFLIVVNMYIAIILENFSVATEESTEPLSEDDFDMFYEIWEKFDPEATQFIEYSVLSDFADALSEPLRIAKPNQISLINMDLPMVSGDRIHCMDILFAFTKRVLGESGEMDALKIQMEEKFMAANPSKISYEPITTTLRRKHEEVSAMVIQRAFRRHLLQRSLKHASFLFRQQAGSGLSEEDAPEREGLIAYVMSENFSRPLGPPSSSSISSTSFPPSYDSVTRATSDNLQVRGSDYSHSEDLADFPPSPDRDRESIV
From the text: (§1) Patch-clamp electrophysiology is considered the gold standard technique for investigation of ion channel function and pharmacology. Using this method, sodium channel currents can be measured in cells, which stably (or transiently) express the sodium channel subtype of interest. Application of compounds during such experiments provides a functional measure of the activity and potency of compounds affecting the ion channel of interest.
(§2) Electrophysiological studies can also be performed using the whole cell configuration of the standard manual patch clamp technique as described in the literature (e.g. Pflugers Arch., 1981, 391(2), 85-100). In this assay, cells that express the voltage-gated sodium channel protein of interest are exposed to the drugs by conventional microperfusion systems, or by a home-built perfusion system. A suitable voltage stimulus protocol is used to activate the voltage-gated sodium channels.
(§3) A suitable voltage stimulus protocol is used to activate voltage-gated sodium channel proteins of interest. A typical stimulus protocol may consist of sweeps of sequential voltage pulses starting from a holding potential (i.e. −65 mV), to a more positive and depolarising test pulse potential (i.e. −10 mV) and finally to a more negative and hyperpolarising potential (i.e. −100 mV). According to the biophysics of the voltage-gated ion channel of interest and interest in channel configuration the voltages and durations of the pulses as well as the overall frequency of sweeps applied might vary. Accordingly, a stimulus protocol was designed to assess compounds due to their potential to block NaV1.7 channels primarily in inactivated state. Selectivity over other voltage-gated sodium channel members was assessed by protocols that reflect the native function of the channels (i.e. heart rate or firing of neurons).
(§4) Electrophysiological studies can also be performed using the whole cell configuration of the standard manual patch clamp technique as described in the literature (e.g. Pflugers Arch., 1981, 391(2), 85-100). In this assay, cells that express the human voltage-gated sodium channel protein of interest are exposed to the drugs by conventional microperfusion systems, or by a home-built perfusion system. A suitable voltage stimulus protocol is used to activate the voltage-gated sodium channels. A suitable voltage stimulus protocol may consist of sequential voltage pulses from a holding potential, each first hyperpolarizing the cell, then depolarizing the channels for a brief period. A particularly suitable holding potential may be a voltage allowing a fraction of channels to remain in an inactivated state, like −60 mV. A suitable hyperpolarizing voltage and duration may be −120 mV for 100 ms, and depolarization voltage and duration may be −20 mV for 25 ms, and a suitable frequency of pulses may be 0.1 Hz, but may also have other parameters. Accordingly, a stimulus protocol was designed to assess compounds due to their potential to block NaV1.7 channels primarily in inactivated state. Selectivity over other voltage-gated sodium channel members was assessed by protocols that reflect the native function of the channels (i.e. heart rate or firing of neurons).
Inhibition of Nav1.5 by Compounds of formula (I) as measured using manual patch clamp

[3] = biological target: T1, Nav 1.7; assay: Whole-cell voltage clamp electrophysiology, manual patch clamp (marker b in Table of Examples); conditions: read-out: Nav 1.7 activity
From the text: a.IonWork Quattro data, b=Manual patch clamp data, c=Automated patch clamp data M=Method
Whole-Cell Voltage Clamp Electrophysiology Assay
as §1, §2, §3, §4

[4] = marker b: Manual patch clamp data
[5] = marker b = Manual patch clamp data

T1 sequence (Q15858 whole entry): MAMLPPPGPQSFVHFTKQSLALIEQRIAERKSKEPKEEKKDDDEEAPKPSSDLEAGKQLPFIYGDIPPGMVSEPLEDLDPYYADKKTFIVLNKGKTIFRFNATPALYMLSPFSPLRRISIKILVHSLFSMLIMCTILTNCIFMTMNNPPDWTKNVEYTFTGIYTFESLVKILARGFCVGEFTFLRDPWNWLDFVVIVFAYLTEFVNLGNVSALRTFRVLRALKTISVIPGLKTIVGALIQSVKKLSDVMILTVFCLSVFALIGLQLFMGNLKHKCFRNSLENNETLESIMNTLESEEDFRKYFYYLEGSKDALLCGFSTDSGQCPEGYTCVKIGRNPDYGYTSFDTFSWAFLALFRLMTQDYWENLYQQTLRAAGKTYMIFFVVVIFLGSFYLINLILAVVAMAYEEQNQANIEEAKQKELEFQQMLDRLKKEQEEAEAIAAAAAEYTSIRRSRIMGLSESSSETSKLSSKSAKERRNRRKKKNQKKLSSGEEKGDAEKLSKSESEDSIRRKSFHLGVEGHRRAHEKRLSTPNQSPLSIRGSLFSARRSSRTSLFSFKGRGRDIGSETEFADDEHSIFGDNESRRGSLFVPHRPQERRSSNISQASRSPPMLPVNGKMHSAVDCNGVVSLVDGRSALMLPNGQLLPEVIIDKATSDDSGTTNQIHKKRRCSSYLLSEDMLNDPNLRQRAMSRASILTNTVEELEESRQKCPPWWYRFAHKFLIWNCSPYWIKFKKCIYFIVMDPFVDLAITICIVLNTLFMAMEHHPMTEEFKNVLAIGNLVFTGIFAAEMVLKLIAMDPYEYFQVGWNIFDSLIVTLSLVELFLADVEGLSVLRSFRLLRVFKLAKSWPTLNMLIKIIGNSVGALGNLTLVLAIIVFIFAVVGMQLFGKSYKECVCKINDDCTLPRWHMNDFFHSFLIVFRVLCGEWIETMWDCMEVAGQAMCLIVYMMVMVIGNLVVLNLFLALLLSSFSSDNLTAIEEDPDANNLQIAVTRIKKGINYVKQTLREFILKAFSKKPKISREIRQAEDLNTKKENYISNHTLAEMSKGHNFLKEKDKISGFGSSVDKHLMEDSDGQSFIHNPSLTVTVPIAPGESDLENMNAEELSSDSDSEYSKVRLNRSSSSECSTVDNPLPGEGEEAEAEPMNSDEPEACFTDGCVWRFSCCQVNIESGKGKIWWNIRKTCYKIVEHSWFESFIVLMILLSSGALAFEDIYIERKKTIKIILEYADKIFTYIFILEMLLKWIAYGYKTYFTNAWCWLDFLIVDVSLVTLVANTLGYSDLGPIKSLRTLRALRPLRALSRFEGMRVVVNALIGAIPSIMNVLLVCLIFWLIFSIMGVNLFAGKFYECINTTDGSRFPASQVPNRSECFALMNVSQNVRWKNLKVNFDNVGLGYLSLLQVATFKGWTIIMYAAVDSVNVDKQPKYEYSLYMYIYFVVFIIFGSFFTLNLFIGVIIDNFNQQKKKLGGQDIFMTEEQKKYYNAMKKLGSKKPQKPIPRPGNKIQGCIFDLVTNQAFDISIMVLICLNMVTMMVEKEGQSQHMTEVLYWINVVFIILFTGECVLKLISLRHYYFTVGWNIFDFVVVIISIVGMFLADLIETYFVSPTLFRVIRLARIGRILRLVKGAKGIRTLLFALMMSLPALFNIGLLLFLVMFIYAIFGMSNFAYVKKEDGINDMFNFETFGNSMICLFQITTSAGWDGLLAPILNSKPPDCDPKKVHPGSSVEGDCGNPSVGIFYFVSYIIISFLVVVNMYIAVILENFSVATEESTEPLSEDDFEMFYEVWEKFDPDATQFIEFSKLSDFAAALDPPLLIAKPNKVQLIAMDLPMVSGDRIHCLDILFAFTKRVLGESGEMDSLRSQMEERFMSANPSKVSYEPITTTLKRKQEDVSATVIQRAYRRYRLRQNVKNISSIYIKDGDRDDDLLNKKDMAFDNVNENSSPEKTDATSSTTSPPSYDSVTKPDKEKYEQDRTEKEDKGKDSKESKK

Row | Compound | IC50 [3, 5] [nM] | also measured
1 | Nc1nc(-c2noc(-c3ccco3)n2)nc(N(CC(F)(F)F)c2ccccc2)n1 [Example 68, 6-(5-Furan-2-yl-[1,2,4]oxadiazol-3-yl)-N-phenyl-N-(2,2,2-trifluoro-ethyl)-[1,3,5]triazine-2,4-diamine] | – | IC50 [1]: 225 nM; IC50 [2]: > 10000 nM
2 | COc1ccccc1-c1nc(-c2nc(N)nc(N(C)c3cccc(Cl)c3)n2)no1 [Example 100, N-(3-Chloro-phenyl)-6-[5-(2-methoxy-phenyl)-[1,2,4]oxadiazol-3-yl]-N-methyl-[1,3,5]triazine-2,4-diamine] | – | IC50 [1]: 118 nM; IC50 [2]: 126 nM
3 | Nc1nc(Nc2cccc(F)c2F)nc(-c2noc(-c3ccco3)n2)n1 [Example 113, N-(2,3-Difluoro-phenyl)-6-(5-furan-2-yl-[1,2,4]oxadiazol-3-yl)-[1,3,5]triazine-2,4-diamine] | – | IC50 [3, 4]: 118 nM
4 | Nc1nc(Nc2cccc(F)c2)nc(-c2noc(-c3ccco3)n2)n1 [Example 117, N-(3-Fluorophenyl)-6-(5-furan-2-yl-[1,2,4]oxadiazol-3-yl)-[1,3,5]triazine-2,4-diamine] | – | IC50 [3, 4]: 42 nM
5 | COc1ccc(-c2nc(-c3nc(N)nc(N(C)c4ccccc4)n3)no2)nc1 [Example 118, 6-[5-(5-Methoxy-pyridin-2-yl)-[1,2,4]oxadiazol-3-yl]-N-methyl-N-phenyl-[1,3,5]triazine-2,4-diamine] | – | IC50 [1]: 294 nM; IC50 [2]: 3340 nM
6 | COCCN(c1ccccc1)c1nc(N)nc(-c2noc(-c3ccco3)n2)n1 [Example 119, 6-(5-Furan-2-yl-[1,2,4]oxadiazol-3-yl)-N-(2-methoxy-ethyl)-N-phenyl-[1,3,5]triazine-2,4-diamine] | – | IC50 [3, 4]: 400 nM
7 | CN(c1ccccc1)c1nc(N)nc(-c2noc(-c3ccc(OC(F)(F)F)nc3)n2)n1 [Example 133, 2-N-methyl-2-N-phenyl-6-{5-[6-(trifluoromethoxy)pyridin-3-yl]-1,2,4-oxadiazol-3-yl}-1,3,5-triazine-2,4-diamine] | – | IC50 [3, 4]: 635 nM
8 | CN(c1cccc(F)c1)c1nc(N)nc(-c2noc(-c3ccc(OCC4CC4)nc3)n2)n1 [Example 135, 6-{5-[6-(cyclopropylmethoxy)pyridin-3-yl]-1,2,4-oxadiazol-3-yl}-2-N-(3-fluorophenyl)-2-N-methyl-1,3,5-triazine-2,4-diamine] | – | IC50 [3, 4]: 44 nM
9 | COCCN(c1ccccc1)c1nc(N)nc(-c2noc(-c3ccc(OCC(F)(F)F)nc3)n2)n1 [Example 156, 2-N-(2-Methoxyethyl)-2-N-phenyl-6-{5-[6-(2,2,2-trifluoroethoxy)pyridin-3-yl]-1,2,4-oxadiazol-3-yl}-1,3,5-triazine-2,4-diamine] | – | IC50 [3, 4]: 65 nM
10 | CN(c1ccccc1)c1nc(N)nc(-c2noc(N3CCC(COCC(F)(F)F)CC3)n2)n1 [Example 167, 2-N-Methyl-2-N-phenyl-6-(5-{4-[(2,2,2-trifluoroethoxy)methyl]piperidin-1-yl}-1,2,4-oxadiazol-3-yl)-1,3,5-triazine-2,4-diamine] | – | IC50 [3, 4]: 235 nM
11 | CN(c1ccccc1)c1nc(N)nc(-c2noc(C3CCN(Cc4ccccc4)C3)n2)n1 (stereo not drawn) [Example 207, 6-[5-(1-benzylpyrrolidin-3-yl)-1,2,4-oxadiazol-3-yl]-2-N-methyl-2-N-phenyl-1,3,5-triazine-2,4-diamine] | 97 | –
12 | CN(c1ccccc1)c1nc(N)nc(-c2noc(N3CCC(COCC4CC4)CC3)n2)n1 [Example 216, 6-(5-{4-[(Cyclopropylmethoxy)methyl]piperidin-1-yl}-1,2,4-oxadiazol-3-yl)-2-N-methyl-2-N-phenyl-1,3,5-triazine-2,4-diamine] | 283 | –
13 | COC1CCN(c2nc(-c3nc(N)nc(Nc4ccccc4)n3)no2)CC1 [Example 238, 6-[5-(4-methoxypiperidin-1-yl)-1,2,4-oxadiazol-3-yl]-2-N-phenyl-1,3,5-triazine-2,4-diamine] | 761 | –
14 | CN(c1ccccc1)c1nc(N)nc(-c2noc(-c3ccn(CC(F)(F)F)n3)n2)n1 [Example 256, 2-N-Methyl-2-N-phenyl-6-{5-[1-(2,2,2-trifluoroethyl)-1H-pyrazol-3-yl]-1,2,4-oxadiazol-3-yl}-1,3,5-triazine-2,4-diamine] | 815 | –
15 | CN(c1ccccc1)c1nc(N)nc(-c2noc(C(=O)N3CCC(OCC(F)(F)F)CC3)n2)n1 [Example 262, 2-N-methyl-2-N-phenyl-6-(5-{[4-(2,2,2-trifluoroethoxy)piperidin-1-yl]carbonyl}-1,2,4-oxadiazol-3-yl)-1,3,5-triazine-2,4-diamine] | 400 | –
16 | Cc1cccc(-c2nc(-c3nc(N)nc(N(C)c4ccccc4)n3)no2)n1 [Example 271, 2-N-methyl-6-[5-(6-methylpyridin-2-yl)-1,2,4-oxadiazol-3-yl]-2-N-phenyl-1,3,5-triazine-2,4-diamine] | 945 | –
17 | CN(c1ccccc1)c1nc(N)nc(-c2noc(-c3ncccn3)n2)n1 [Example 278, 2-N-methyl-2-N-phenyl-6-[5-(pyrimidin-2-yl)-1,2,4-oxadiazol-3-yl]-1,3,5-triazine-2,4-diamine] | 1060 | –
18 | COc1cnc(-c2nc(-c3nc(N)nc(N(C)c4ccccc4)n3)no2)c(OC)c1 [Example 282, 6-[5-(3,5-Dimethoxypyridin-2-yl)-1,2,4-oxadiazol-3-yl]-2-N-methyl-2-N-phenyl-1,3,5-triazine-2,4-diamine] | 308 | –
19 | Nc1nc(Nc2ccccc2)nc(-c2noc(-c3ccc(COCC(F)(F)F)nc3)n2)n1 [Example 303, 2-N-phenyl-6-(5-{6-[(2,2,2-trifluoroethoxy)methyl]pyridin-3-yl}-1,2,4-oxadiazol-3-yl)-1,3,5-triazine-2,4-diamine] | 24 | –
20 | CN(c1ccccc1)c1nc(N)nc(-c2noc(-c3ccc([S+]([O-])CC(F)(F)F)nc3)n2)n1 (stereo not drawn) [Example 320, 2-N-methyl-2-N-phenyl-6-(5-{6-[(2,2,2-trifluoroethane)sulfinyl]pyridin-3-yl}-1,2,4-oxadiazol-3-yl)-1,3,5-triazine-2,4-diamine] | 276 | –
21 | CN(c1ccccc1)c1nc(N)nc(-c2noc(N3CCC(OCC(F)(F)F)CC3)n2)n1 [Example 335, 2-N-methyl-2-N-phenyl-6-{5-[4-(2,2,2-trifluoroethoxy)piperidin-1-yl]-1,2,4-oxadiazol-3-yl}-1,3,5-triazine-2,4-diamine] | 701 | –
22 | Cc1csc(-c2nc(-c3nc(N)nc(N(C)c4ccccc4)n3)no2)n1 [Example 341, 2-N-methyl-6-[5-(4-methyl-1,3-thiazol-2-yl)-1,2,4-oxadiazol-3-yl]-2-N-phenyl-1,3,5-triazine-2,4-diamine] | 1490 | –
23 | Nc1nc(Nc2ccccc2)nc(-c2noc(-c3ncccc3F)n2)n1 [Example 346, 6-[5-(3-Fluoropyridin-2-yl)-1,2,4-oxadiazol-3-yl]-2-N-phenyl-1,3,5-triazine-2,4-diamine] | 337 | –
24 | CN(c1nc(N)nc(-c2noc(-c3ccc(OCC(F)(F)F)nc3)n2)n1)c1cccc(F)c1F [Example 411, 2-N-(2,3-difluorophenyl)-2-N-methyl-6-{5-[6-(2,2,2-trifluoroethoxy)pyridin-3-yl]-1,2,4-oxadiazol-3-yl}-1,3,5-triazine-2,4-diamine] | 17 | –
25 | CN(c1ccccc1)c1nc(N)nc(-c2noc(-c3ccnc(OCC(F)(F)F)c3)n2)n1 [Example 472, 2-N-methyl-2-N-phenyl-6-{5-[2-(2,2,2-trifluoroethoxy)pyridin-4-yl]-1,2,4-oxadiazol-3-yl}-1,3,5-triazine-2,4-diamine] | 900 | –
26 | CN(c1ccccc1)c1nc(N)nc(-c2noc(-c3cccnc3OCC(F)(F)F)n2)n1 [Example 477, 2-N-methyl-2-N-phenyl-6-{5-[2-(2,2,2-trifluoroethoxy)pyridin-3-yl]-1,2,4-oxadiazol-3-yl}-1,3,5-triazine-2,4-diamine] | 172 | –
27 | CN(c1ccccc1)c1nc(N)nc(-c2noc(N3CC(Oc4ccccc4)C3)n2)n1 [Example 489, 2-N-methyl-6-[5-(3-phenoxyazetidin-1-yl)-1,2,4-oxadiazol-3-yl]-2-N-phenyl-1,3,5-triazine-2,4-diamine] | 127 | –
